Results on four molecules are retold here after paper PMC9945734 (BMC Medicine, 2023).

The inhibition is the relative decrease from the control value, in per cent. Usually IC50 stands for the concentration that inhibits the measured activity by half. A high value points to lower potency. The term Kd denotes a measure of binding affinity in units of concentration.

Experiment [1] deals with PC-3-KQ cells. Description: 3D spheroid invasion assay and screening of FDA-approved drugs. To be noted: Homo sapiens; for activity at 0.01 µM / activity at 0.1 µM / activity at 1 µM / activity at 10 µM: 72 h, compared to vehicle control, read-out: Invasion rates (%) of each drug’s multiple concentrations; for inhibition at 0.1 µM: read-out: inhibition of cell invasion. In kind it is cell-based, human. An outline of the steps:
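Cells were clustered into spheroids by centrifugation and grown 3 days, then embedded in matrigel-medium containing drug on day 4 and cultured another 3 days. Drugs were screened at 10 μM first, then at 0–10 μM, in duplicate wells. Invasion area is total area minus core sphere area from phase-contrast images.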

For experiment [2], the system named is DU 145 (KLF5 null) cells expressing KLF5^K369R. The experiment in a line: CCK-8 cell viability assay. To be noted: Homo sapiens, CCK-8, 48 h. In kind it is cell-based. Here is the method:
(§1) According to the manufacturer's instructions, cell viability was measured using a kit from Beyotime Biotechnology. Briefly, cells were seeded onto 96-well plates at 5 × 10^3 cells per well, incubated overnight, and then treated for 48 h with drugs at 0, 0.02, 0.05, 0.14, 0.41, 1.23, 3.7, 11.1, 33.3, and 100 μM. Four drugs were analyzed: furagin, nifuratel, nitazoxanide, and retapamulin. At the end of drug treatment, the medium was removed, the CCK-8 solution was added into each well at 100 μL/well and incubated for 1.5 h at 37°C, and the optical density (OD) was measured at 450 nm using a microplate reader (BioTek).

Experiment [3] has as its system DU 145 (KLF5 null) cells expressing KLF5. Description: CCK-8 cell viability assay. In kind it is cell-based. To be noted: Homo sapiens, CCK-8, 48 h. Here is the method: as §1
(Tetrazolium assays rely on reduction of a dye to a coloured formazan, in cell work by metabolically active cells.)

Experiment [4] deals with PC-3 (KLF5 null) cells expressing KLF5^K369R. The experiment in a line: CCK-8 cell viability assay. In kind it is cell-based. To be noted: Homo sapiens, CCK-8, 48 h. The protocol: as §1
Experiment [5] concerns PC-3 (KLF5 null) cells expressing KLF5. Description: CCK-8 cell viability assay. In kind it is cell-based. The note with it: Homo sapiens, CCK-8, 48 h. Here is the method: as §1
In experiment [6] the test system is DU 145 (KLF5 null) cells expressing KLF5^K369Q. The experiment in a line: CCK-8 cell viability assay. In kind it is cell-based, human. The note with it: Homo sapiens; DU 145 (KLF5 null), KLF5^K369Q; CCK-8, 48 h. Here is the method:
as §1
(§2) We also tested a wider range of NTZ concentrations in PC-3-KQ and DU 145-KQ cells using the CCK-8 assay by seeding 2 × 10^3 cells and 2.5 × 10^3 cells onto each well of 96-well plates. PC-3-KQ cells were treated with NTZ at 0, 0.01, 0.1, […], 2.5, and 5 μM, while DU 145-KQ cells were treated with NTZ at 0, 0.01, 0.1, 5, 10, and 20 μM for 0, 24, 48, and 72 h. The number of viable cells was determined using the CCK-8 solution as described above.

Experiment [7] relates to PC-3 (KLF5 null) cells expressing KLF5^K369Q. The experiment in a line: CCK-8 cell viability assay. The note with it: Homo sapiens; PC-3 (KLF5 null), KLF5^K369Q; CCK-8, 48 h. In kind it is cell-based, human. The protocol:
as §1, §2

For experiment [8], the target named is T1, KLF5 protein (Homo sapiens, UniProt Q13887).
T1 construct: made in house; host or cells: E. coli BL21 DE3
T1 sequence (Q13887 whole entry): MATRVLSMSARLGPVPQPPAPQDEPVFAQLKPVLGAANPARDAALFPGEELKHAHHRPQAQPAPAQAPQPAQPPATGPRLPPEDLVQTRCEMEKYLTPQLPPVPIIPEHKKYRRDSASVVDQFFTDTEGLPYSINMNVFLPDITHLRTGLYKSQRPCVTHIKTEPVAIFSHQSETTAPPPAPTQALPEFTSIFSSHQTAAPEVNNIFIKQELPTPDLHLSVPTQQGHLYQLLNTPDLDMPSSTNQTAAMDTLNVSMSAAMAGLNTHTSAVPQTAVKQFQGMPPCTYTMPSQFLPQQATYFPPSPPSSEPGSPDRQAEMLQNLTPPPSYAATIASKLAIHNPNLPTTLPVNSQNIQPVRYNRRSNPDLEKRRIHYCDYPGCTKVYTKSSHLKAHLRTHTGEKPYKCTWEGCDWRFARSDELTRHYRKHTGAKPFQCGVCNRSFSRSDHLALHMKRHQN
The experiment in a line: Fluorescence titration (quenching) of KLF5 protein. To be noted: read-out: binding constant Kd. The protocol:
(§3) Wild-type or mutant KLF5 protein at 1 μM in 2 mL PBS was measured for fluorescence spectrum using a fluorescence spectrometer (HORIBA, Kyoto, Japan), and the fluorescence spectra were obtained for wavelengths of 300–500 nm. NTZ with various concentration ranges and various increments were used in the analysis, including 0.1–1 μM with an increment of 0.1 μM, 1–5 μM with an increment of 0.5 μM, 5–10 μM with an increment of 1 μM, and 10–30 μM with an increment of 5 μM. The incubation with NTZ was for 5 s at room temperature. Data were processed and fitted to obtain the binding affinities using the Origin software (OriginLab, Northampton, MA, USA), and Kd values were determined by the responses at […] wavelength.

In experiment [9] the target is T2, KLF5^K369Q protein (Homo sapiens, UniProt Q13887, K369Q).
T2 construct: made in house; host or cells: E. coli BL21 DE3
T2 sequence (Q13887 whole entry K369Q): as the sequence (Q13887 whole entry) above, with K369Q counted along it
Description: Fluorescence titration (quenching) of KLF5 protein. To be noted: read-out: binding constant Kd. Here is the method: as §3

Experiment [10] addresses T3, KLF5^K369R protein (Homo sapiens, UniProt Q13887, K369R).
T3 construct: made in house; host or cells: E. coli BL21 DE3
The experiment in a line: Fluorescence titration (quenching) of KLF5 protein. The note with it: read-out: binding constant Kd. The protocol: as §3

Where [11] appears, read: 0.01 μM (first column so headed), secondary screening of 87 hit compounds (Table S1).
[12] abbreviates: 0.01 μM (first column so headed), third screening of 25 hit compounds (Table S2).
The mark [13] stands for this setting: 0.01 μM (second column so headed), secondary screening of 87 hit compounds (Table S1).
The mark [14] stands for this setting: 0.01 μM (second column so headed), third screening of 25 hit compounds (Table S2).
Where [15] appears, read: secondary screening of 87 hit compounds (Table S1).
Setting [16] is: third screening of 25 hit compounds (Table S2).

Read-outs that look alike come from different tables or passages of the source.

T3 sequence (Q13887 whole entry K369R): as the sequence (Q13887 whole entry) above, with K369R counted along it

With `O=C1CN(/N=C/C=C/c2ccc([N+](=O)[O-])o2)C(=O)N1` [Furagin], the activity at 0.01 µM in [1] (setting [11]) amounted to 24.8%; in experiment [1] (setting [12]), 77.1%; in [1] (setting [13]), 42.2%; in [1] (setting [14]), 97.5%. The activity at 0.1 µM in experiment [1] (setting [15]) was determined as 5.95%; in experiment [1] (setting [16]), 2.26%. Also, the activity at 1 µM in [1] (setting [15]) stood at 3.36%; in [1] (setting [16]) it was 2.3%. Moreover, the activity at 10 µM was found to be 2.18% in experiment [1] (setting [15]) and 1.29% in [1] (setting [16]). The inhibition at 0.1 µM in experiment [1] is more than 50%. Also, the IC50 in [2] stood at 359 ± 127 µM; in [3] it was 31.4 ± 4 µM; in experiment [4], 101 ± 27.9 µM; in [5] it was 17.3 ± 2.2 µM; in experiment [6] it was 63.3 ± 2.4 µM; in [7], 28.6 ± 1.9 µM.

`CC1(C)CCC(C)(C)c2cc(NC(=O)c3ccc(C(=O)O)cc3)ccc21` [Am80]: the Kd in experiment [8], in [9] and in experiment [10] was more than 30 µM throughout.

Take `C=C[C@]1(C)C[C@@H](OC(=O)CS[C@@H]2C[C@H]3CC[C@@H](C2)N3C)[C@]2(C)[C@H](C)CC[C@]3(CCC(=O)[C@H]32)[C@@H](C)[C@@H]1O` [Retapamulin]: the activity at 0.01 µM came out at 7.43% in [1] (setting [11]), 74.4% in experiment [1] (setting [12]) and 94.3% in experiment [1] (setting [14]). In addition, the activity at 0.1 µM in experiment [1] (setting [15]) came out at 7.18%; in [1] (setting [16]), 4.92%. Further, the activity at 1 µM is 7.28% in [1] (setting [15]) and 1.65% in experiment [1] (setting [16]). Also, the activity at 10 µM in experiment [1] (setting [15]) was found to be 4.68%; in experiment [1] (setting [16]), 2.42%. For the same molecule, in experiment [1], the inhibition at 0.1 µM was more than 50%. For the same molecule, the IC50 in experiment [2] was found to be 11.1 ± 0.8 µM; in [3] it was 13.7 ± 2.7 µM; in experiment [4], 12.2 ± 1.1 µM; in experiment [5], 1.6 ± 0.3 µM; in experiment [6], 14.7 ± 1.5 µM; in [7] it was 12.6 ± 2.3 µM.

In the case of `CSCC1CN(/N=C/c2ccc([N+](=O)[O-])o2)C(=O)O1` (centres unmarked) [Nifuratel], the activity at 0.01 µM in experiment [1] (setting [11]) was found to be 70%; in [1] (setting [12]), 59.9%; in experiment [1] (setting [13]), 82.6%; in experiment [1] (setting [14]) it was 93.9%. Further, the activity at 0.1 µM is 60.6% in experiment [1] (setting [15]) and 7.32% in experiment [1] (setting [16]). For the same molecule, the values for the activity at 1 µM in experiment [1] (setting [15]) and in experiment [1] (setting [16]) were 8.43% and 3.12%, respectively. In addition, the figures for the activity at 10 µM in experiment [1] (setting [15]) and in experiment [1] (setting [16]) were 0.26% and 1.46%, respectively. Besides, the inhibition at 0.1 µM in experiment [1] was more than 50%. Further, the IC50 is 14 ± 0.2 µM in [2]; 7.1 ± 0.7 µM in [3]; 18.7 ± 1 µM in experiment [4]; 32 ± 1.6 µM in [5]; 16.2 ± 0.8 µM in [6]; 18.6 ± 0.7 µM in experiment [7].
